Laboratory results published in patent publication US20130158112A1, “COMPOSITIONS AND METHODS FOR INHIBITING BETA AMYLOID SECRETION” (priority 2011, published 2013).
Like-named read-outs stand apart in the source and are kept apart here.

Tests used:
Aβ secretion [1] = assay: PKC inhibitors experiment on Aβ secretion; type: cell-based, human; conditions: for effect on basal Aβ secretion: PKC inhibitor alone; for effect of PKC inhibitor on compound 1 inhibited Aβ secretion: inhibitor given 30 min prior to compound 1
Method: (§1) H4βAPP695 wt cells, a human […] cell line stably transfected with a wtβAPP695 expression vector construct under the control of a CMV promoter (kindly provided by Dr. Chris Eckman from Mayo Clinic, Florida) were cultured as previously described. Twenty-four hours before drug treatment, the media was replaced with serum-free media. Cells were then incubated with drugs (dissolved in DMSO) or vehicle for 24 h for collection of conditioned media and cell lysates. For the PKC inhibitors experiment, three inhibitors were treated 30 min prior to drug challenge. Primary cortical neurons were prepared from embryonic day 18 APP and presenilin 1 (APPswe, PSEN1dE9) transgenic mice on the C57BL/6 genetic background (Jackson Laboratories, strain no. 5864) as previously described. THLE-3 human hepatoma cells (from ATCC) were plated in 24-well plates that were precoated with 10 μg/mL bovine serum albumin, 10 μg/mL fibronectin, and 30 μg/mL bovine type I collagen. The cells were grown in BEGM media (Clonetics) until confluent and treated with drugs at 20 μM for 24 h. This conditioned media was harvested, diluted 1:1 in serum-free medium, and incubated with H4βAPP695 wt cells for 24 h prior to analysis of secreted Aβ, which was compared to the effect of 10 μM drug treatments without prior incubation with the THLE-3 cells. Caco-2 cells (ATCC) were plated in 12-well plates with Transwell inserts (Costar) at 70000 cells per well and grown for 21 days. The media volume of the apical and basal chambers was 0.5 and 1.5 mL, respectively. Transepithelial resistance was measured in each well and found to be >160 Ω/cm^2. Drugs at 40 μM and 20 μg/mL of lucifer yellow were added in serum-free medium to the apical chamber. Four hours later, the basal chamber media was harvested and used to measure lucifer yellow fluorescence to confirm monolayer integrity as well as for treatment of H4βAPP695 wt cells for 24 h prior to analysis of secreted Aβ, which was compared to the effect of direct addition of 10 μM of the corresponding drug.
The tumor promoter phorbal myristate acetate is an activator of protein kinase C (PKC) that has been reported to activate α-secretase activity. Thus, we wanted to determine if protein kinase C inhibitors could block the effect of compound 1 on Aβ secretion.

[2] = tested on: THLE-3 human hepatoma cells; assay: Drug activity persistence after incubation with THLE-3 hepatoma cells; type: in vitro ADME; conditions: for inhibition at 10 µM: Homo sapiens, THLE3, 24 h; for % remaining Activity: after 24 h incubation with hepatoma cells
Method: as §1
To screen for resistance to metabolism, 1 and eight noncytotoxic analogues with >50% Aβ reducing activity (compounds 27, 29, 48, 52, 53, 65, 73, and 76) were incubated at 20 μM for 24 h with or without THLE-3 human hepatoma cells.

H4βAPP695 wt cells [3] = assay: Cytotoxicity by total cell protein content (BCA) of H4βAPP695 wt cells; conditions: cytotoxicity
Method: (§2) Cells were washed with cold phosphate buffered saline (PBS) and lysed on ice by vigorous mixing over 15 min with RIPA buffer containing 50 mM Tris-HCl (pH 8.0), 150 mM sodium chloride, 1% NP-40, 0.5% sodium deoxycholate, and 0.1% SDS, supplemented with 10% protease inhibitor cocktail and 2 mM PMSF. After centrifugation at 14000 g for 30 min to remove nuclei and other debris at 4° C., the protein content of the supernatants was measured using the BCA assay kit (Pierce).
(§3) The initial screen was performed in 96-well plates with drugs distributed by the hanging drop method yielding estimated drug levels of 10-25 μM. Total Aβ levels in the 24 h conditioned media were measured by a sandwich ELISA assay, and cytotoxicity was assessed by methylene blue staining of the cells in the wells, as previously described.

Caco-2 cells = assay: Epithelial transcellular transport of drug activity through Caco-2 monolayers; type: in vitro ADME; conditions: for % theoretical activity: % of activity passing through Caco-2 monolayer; for inhibition at 10 µM / inhibition at up to 10 µM: Homo sapiens; for inhibition at 10 µM: Caco-2, 10 μM drug alone added directly to H4βAPP695 wt cells, read-out: transcellular transport No total Aβ (% decrease); for inhibition at up to 10 µM: Caco-2, 4 h, lower chamber media after 4 h on Caco-2 monolayer, 10 μM if in equilibrium, read-out: transcellular transport Yes total Aβ (% decrease)
Method: as §1
Monolayer integrity was confirmed by high levels of transcellular electrical resistance (>160 ohms/cm^2) and by transcellular impermeability to the fluorescent dye lucifer yellow. […] The concentration of each compound added to the upper chamber would lead to 10 μM in the lower chamber if equilibration was complete, and thus the activity of the lower chamber media was compared to the activity of 10 μM drug added directly to the H4βAPP695 wt cells. […] Compound 1 crossed the monolayer and the bottom chamber media led to a 27% reduction in Aβ production, yielding 38% of the theoretical activity. The compound with the most activity in the lower chamber was compound 48, which decreased Aβ production by 50%, with 71% of its theoretical activity. […] On the basis of the combined activity data from these last two studies, compound 48 was selected as the lead drug for in vivo study.

Aβ secretion [4] = assay: Secreted total Aβ ELISA in conditioned media of H4βAPP695 wt cells; type: cell-based, human; conditions: for inhibition at 10 µM / inhibition at 30 µM: Homo sapiens, 24 h, H4βAPP695 wt cells; for inhibition at 10 µM: read-out: Total Aβ (% decrease) 10 μM Mean; for inhibition at 30 µM: read-out: Total Aβ (% decrease) 30 μM Mean; for Aβ secretion inhibiting activity (structure activity summary): in words
Outline: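 H4 […] cells stably expressing wild-type βAPP695 (CMV promoter), serum-starved 24 h, then exposed to drug in DMSO or vehicle for 24 h before Aβ in conditioned media was measured. Primary cortical neurons came from E18 APPswe/PSEN1dE9 mice on C57BL/6 background.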

H4βAPP695 wt cells [5] = conditions: human, 24 h
Method: as §2, §3

[6] = 10 μM on H4 cells, without preincubation with hepatoma cells, read-out: hepatoma incubation No total Aβ (% decrease)
[7] = 20 μM preincubated 24 h with THLE-3 hepatoma cells, diluted to 10 μM on H4 cells, read-out: hepatoma incubation Yes total Aβ (% decrease)

Molecule | effect on basal Aβ secretion (Aβ secretion [1]) | effect of PKC inhibitor on compound 1 inhibited Aβ secretion (Aβ secretion [1]) | inhibition at 10 µM [2, 6] | inhibition at 10 µM [2, 7] | % remaining Activity [2] | Cell protein (% decrease) 10 μM Mean (H4βAPP695 wt cells [3]) | Cell protein (% decrease) 30 μM Mean (H4βAPP695 wt cells [3]) | % theoretical activity (Caco-2 cells) | inhibition at 10 µM (Caco-2 cells) | inhibition at up to 10 µM (Caco-2 cells) | inhibition at 10 µM (Aβ secretion [4]) | inhibition at 30 µM (Aβ secretion [4]) | Aβ secretion inhibiting activity (structure activity summary) (Aβ secretion [4]) | melting point | Cell protein (% decrease) 10 μM Mean (H4βAPP695 wt cells [5]) | Cell protein (% decrease) 30 μM Mean (H4βAPP695 wt cells [5]) | hepatoma incubation Yes total Aβ (% decrease) ([2]; 20 μM preincubated 24 h with THLE-3 hepatoma cells, diluted to 10 μM on H4 cells)
CN(C)CCCn1cc(C2=C(c3c[nH]c4ccccc34)C(=O)NC2=O)c2ccccc21 [Bisindolylmaleimide I] | no effect | no effect |  |  |  |  |  |  |  |  |  |  |  |  |  |  | 
COc1cccc(CSCCNC(=O)c2c(Cl)cccc2Cl)c1 [Compound 27, 2,6-dichloro-N-[2-(3-methoxy-benzylsulfanyl)-ethyl]-benzamide] |  |  | 60.6% | 22.2% | 37% | 8.4% | 13.2% | 29.5% | 60.6% | 17.9% | > 50% | 73.9% | good activity |  |  |  | 
COc1cccc(CSCCNC(=O)c2c([N+](=O)[O-])cccc2[N+](=O)[O-])c1 [Compound 37, N-[2-(3-Methoxy-benzylsulfanyl)-ethyl]-2,6-dinitro-benzamide] |  |  |  |  |  |  |  |  |  |  | -14.1% | -2.8% | not well tolerated | 69 to 71 °C | 3.7% | −3.8% | 
COc1cccc(CSCCNC(=O)c2c(Cl)cccc2Cl)c1OC [Compound 52, 2,6-Dichloro-N-[2-(2,3-dimethoxy-benzylsulfanyl)-ethyl]-benzamide] |  |  | 57.8% | 1.9% |  | −0.1% | 8.7% | 45.9% | 57.8% | 26.5% | > 50% | 72.8% | could be tolerated | 108 to 110 °C |  |  | 
O=C(NCCSCc1cccc(I)c1)c1c(Cl)cccc1Cl [Compound 53, 2,6-Dichloro-N-[2-(3-iodo-benzylsulfanyl)-ethyl]-benzamide] |  |  | 84.4% | 40% | 47% | 9.2% | 19% | 1.3% | 84.4% | 1% |  | 88.3% | good activity | 75 to 78 °C |  |  | 40.0%
O=C(NCCSCc1cccc(Cl)c1)c1c([N+](=O)[O-])cccc1[N+](=O)[O-] [Compound 56, N-[2-(3-Chloro-benzylsulfanyl)-ethyl]-2,6-dinitro-benzamide] |  |  |  |  |  |  |  |  |  |  | 28.8% | 52.9% | not well tolerated | 139 to 140 °C | 0.1% | 17.8% | 
O=C(NCCSCc1ccccc1)c1c(Cl)cccc1Cl [Compound 65, N-(2-Benzylsulfanyl-ethyl)-2,6-dichloro-benzamide] |  |  | 51.6% | 27% | 52% | −1.1% | −0.7% | 60.1% | 51.6% | 31% | > 50% | 58.6% | retained activity | 96 to 97 °C |  |  | 
COc1cc(Cl)cc(CSCCNC(=O)c2c(Cl)cccc2Cl)c1 [Compound 73, 2,6-Dichloro-N-[2-(3-chloro-5-methoxy-benzylsulfanyl)-ethyl]-benzamide] |  |  | 67.7% | 33.5% | 49% | 0.9% | 0.4% | 4.0% | 67.7% | 2.7% | > 50% | 81% | could be tolerated | 83 to 84 °C |  |  | 
O=C(NCCSCc1ccccc1Cl)c1c(Cl)cccc1Cl [Compound 76, 2,6-Dichloro-N-[2-(2-chloro-benzylsulfanyl)-ethyl]-benzamide] |  |  | 75.6% | 49% | 65% | −0.5% | −11% | 41.8% | 75.6% | 32% |  | 80% | retained activity | 110 to 112 °C |  |  | 
CC(=O)c1c(O)c(C)c(O)c(Cc2c(O)c3c(c(C(=O)/C=C/c4ccccc4)c2O)OC(C)(C)C=C3)c1O [Rottlerin] | reduced Aβ secretion | did not significantly alter the effect of compound 1 |  |  |  |  |  |  |  |  |  |  |  |  |  |  | 
Calphostin C | no effect | no effect |  |  |  |  |  |  |  |  |  |  |  |  |  |  | 
